Assays:
Assay type in all cases: cell-based
Conditions in all cases: 24 h
AU565 = assay: MTT cytotoxicity test, AU565
From the text: (§1) In this test, […] present in the cells converts the soluble tetrazolium salt (3-4,5-dimethylthiazol-2-yl)-2,5-diphenyltetrazolium bromide) into a reduced form. The reaction yields water-insoluble purple crystalline formazan. The number of crystals formed depends on the enzyme activity so that it is directly proportional to the number of viable cells in the sample. Spectrophotometric measurement requires the use of an organic solvent to dissolve the crystals obtained (isopropanol). The change in colour intensity is measured by spectrophotometry at 570 nm wavelength. The test was performed for a number of dilutions (9) of nanoparticle solutions containing the tested anthracycline. The baseline concentration of nanoparticles for MTT tests was 2.5 mg of nanoparticles/ml. […] The study was also performed for drug-free nanoparticles (the carrier itself was obtained similarly to the nanoparticles with the drug). Cells not exposed to toxic substances were used as a control for toxicity studies.
(§2) After reaching 85-90% confluence, the cells were trypsinised using a 0.25% trypsin solution. The cells were then centrifuged (1200 rpm, 5 min.) and suspended in a culture medium suitable for a particular cell line. […] The cells were plated at a concentration of 1000 cells/100 μl of medium per culture well (96-well plates). The prepared plates were incubated (37° C./5% CO2/22 h to 26 h). Subsequently, the culture medium was replaced with a fresh one (100 μl) containing the appropriate concentration of the tested nanoparticles and set aside for 24 h (37° C./5% CO2). After the lapse of the test time, the medium was removed and replaced with 50 μl of an MTT reagent solution at a concentration of 1 mg/ml. The plate was incubated for 2 hours (37° C./5% CO2). Subsequently, the MTT solution was removed, and 100 μl of isopropanol was added. […] The mean value of absorbance read OD570 of the cells not exposed to a toxic agent (control) should be above 0.7 [see literature item 206].
(§3) A decrease in the number of viable cells causes a decrease in metabolic activity in the sample. This reduction directly correlates with the amount of blue and purple formazan formed, monitored basing on the optical density at 570 nm. The following equation (C.1) is used to calculate viability reduction compared to control:
(§4) where: • OD570e is the mean value of the measured absorbance of the test samples; • OD570b is the mean value of the measured absorbance of the control.
(§5) The results obtained were statistically analysed using the Dixon Q test.

OVCAR-3 = assay: MTT cytotoxicity test, OVCAR-3
From the text: as §1, §2, §3, §4, §5

MCF-7 = assay: MTT cytotoxicity test, MCF-7
From the text: as §1, §2, §3, §4, §5

A2780 = assay: MTT cytotoxicity test, A2780
From the text: as §1, §2, §3, §4, §5

A549 = assay: MTT cytotoxicity test, A549
From the text: as §1, §2, §3, §4, §5

COLO 205 = assay: MTT cytotoxicity test, COLO 205
From the text: as §1, §2, §3, §4, §5

ACHN = assay: MTT cytotoxicity test, ACHN
From the text: as §1, §2, §3, §4, §5

PANC-1 = assay: MTT cytotoxicity test, PANC-1
From the text: as §1, §2, §3, §4, §5

COc1cccc2c1C(=O)c1c(O)c3c(c(O)c1C2=O)C[C@@](O)(C(=O)CO)C[C@@H]3O[C@H]1C[C@H](N)[C@@H](O)[C@H](C)O1 [Epi, epirubicin]
Average viability (AU565; AU565, 1.25E+04 ng/ml NPs (pure drug equimolar)): 66.48% | Average viability (AU565; AU565, 1.25E+05 ng/ml NPs (pure drug equimolar)): 48.38% | Average viability (AU565; AU565, 2.50E+04 ng/ml NPs (pure drug equimolar)): 66.439% | Average viability (AU565; AU565, 2.50E+05 ng/ml NPs (pure drug equimolar)): 29.222% | Average viability (AU565; AU565, 2.50E+06 ng/ml NPs (pure drug equimolar)): 1.822% | Average viability (AU565; AU565, 5.00E+03 ng/ml NPs (pure drug equimolar)): 84.738% | Average viability (AU565; AU565, 5.00E+04 ng/ml NPs (pure drug equimolar)): 48.052% | Average viability (AU565; AU565, 5.00E+05 ng/ml NPs (pure drug equimolar)): 11.723% | Average viability (OVCAR-3; OVCAR3, 1.25E+05 ng/ml NPs (pure drug equimolar)): 91.668% | Average viability (OVCAR-3; OVCAR3, 1.25E+06 ng/ml NPs (pure drug equimolar)): 58.803% | Average viability (OVCAR-3; OVCAR3, 2.50E+04 ng/ml NPs (pure drug equimolar)): 99.208% | Average viability (OVCAR-3; OVCAR3, 2.50E+05 ng/ml NPs (pure drug equimolar)): 88.222% | Average viability (OVCAR-3; OVCAR3, 2.50E+06 ng/ml NPs (pure drug equimolar)): 33.266% | Average viability (OVCAR-3; OVCAR3, 5.00E+04 ng/ml NPs (pure drug equimolar)): 92.151% | Average viability (OVCAR-3; OVCAR3, 5.00E+05 ng/ml NPs (pure drug equimolar)): 75.986% | Average viability (MCF-7; MCF-7, 1.25E+04 ng/ml NPs (pure drug equimolar)): 88.51% | Average viability (MCF-7; MCF-7, 1.25E+05 ng/ml NPs (pure drug equimolar)): 46.97% | Average viability (MCF-7; MCF-7, 1.25E+06 ng/ml NPs (pure drug equimolar)): 5.9% | Average viability (MCF-7; MCF-7, 2.50E+04 ng/ml NPs (pure drug equimolar)): 64.7% | Average viability (MCF-7; MCF-7, 2.50E+05 ng/ml NPs (pure drug equimolar)): 41.35% | Average viability (MCF-7; MCF-7, 2.50E+06 ng/ml NPs (pure drug equimolar)): 1.68% | Average viability (MCF-7; MCF-7, 5.00E+03 ng/ml NPs (pure drug equimolar)): 97.78% | Average viability (MCF-7; MCF-7, 5.00E+04 ng/ml NPs (pure drug equimolar)): 56.01% | Average viability (MCF-7; MCF-7, 5.00E+05 ng/ml NPs (pure drug equimolar)): 31.11% | Average viability (A2780; A2780, 1.25E+04 ng/ml NPs (pure drug equimolar)): 90.784% | Average viability (A2780; A2780, 1.25E+05 ng/ml NPs (pure drug equimolar)): 69.996% | Average viability (A2780; A2780, 1.25E+06 ng/ml NPs (pure drug equimolar)): 14.869% | Average viability (A2780; A2780, 2.50E+04 ng/ml NPs (pure drug equimolar)): 89.24% | Average viability (A2780; A2780, 2.50E+05 ng/ml NPs (pure drug equimolar)): 58.252% | Average viability (A2780; A2780, 2.50E+06 ng/ml NPs (pure drug equimolar)): 3.102% | Average viability (A2780; A2780, 5.00E+03 ng/ml NPs (pure drug equimolar)): 95.203% | Average viability (A2780; A2780, 5.00E+04 ng/ml NPs (pure drug equimolar)): 83.629% | Average viability (A2780; A2780, 5.00E+05 ng/ml NPs (pure drug equimolar)): 41.752% | Average viability (A549; A549, 1.25E+04 ng/ml NPs (pure drug equimolar)): 95.631% | Average viability (A549; A549, 1.25E+05 ng/ml NPs (pure drug equimolar)): 83.913% | Average viability (A549; A549, 1.25E+06 ng/ml NPs (pure drug equimolar)): 29.508% | Average viability (A549; A549, 2.50E+04 ng/ml NPs (pure drug equimolar)): 88.608% | Average viability (A549; A549, 2.50E+05 ng/ml NPs (pure drug equimolar)): 75.153% | Average viability (A549; A549, 2.50E+06 ng/ml NPs (pure drug equimolar)): 23.423% | Average viability (A549; A549, 5.00E+04 ng/ml NPs (pure drug equimolar)): 74.693% | Average viability (COLO 205; Colo205, 1.25E+04 ng/ml NPs (pure drug equimolar)): 63.431% | Average viability (COLO 205; Colo205, 1.25E+05 ng/ml NPs (pure drug equimolar)): 55.748% | Average viability (COLO 205; Colo205, 1.25E+06 ng/ml NPs (pure drug equimolar)): 5.063% | Average viability (COLO 205; Colo205, 2.50E+04 ng/ml NPs (pure drug equimolar)): 66.212% | Average viability (COLO 205; Colo205, 2.50E+05 ng/ml NPs (pure drug equimolar)): 49.549% | Average viability (COLO 205; Colo205, 2.50E+06 ng/ml NPs (pure drug equimolar)): 2.239% | Average viability (COLO 205; Colo205, 5.00E+03 ng/ml NPs (pure drug equimolar)): 83.936% | Average viability (COLO 205; Colo205, 5.00E+04 ng/ml NPs (pure drug equimolar)): 61.427% | Average viability (COLO 205; Colo205, 5.00E+05 ng/ml NPs (pure drug equimolar)): 23.946% | Average viability (ACHN; 1.25E+04 ng/ml NPs (pure drug equimolar)): 65.301% | Average viability (ACHN; 1.25E+05 ng/ml NPs (pure drug equimolar)): 63.237% | Average viability (ACHN; 1.25E+06 ng/ml NPs (pure drug equimolar)): 46.66% | Average viability (ACHN; 2.50E+04 ng/ml NPs (pure drug equimolar)): 63.713% | Average viability (ACHN; 2.50E+05 ng/ml NPs (pure drug equimolar)): 60.112% | Average viability (ACHN; 2.50E+06 ng/ml NPs (pure drug equimolar)): 32.352% | Average viability (ACHN; 5.00E+03 ng/ml NPs (pure drug equimolar)): 81.178% | Average viability (ACHN; 5.00E+04 ng/ml NPs (pure drug equimolar)): 59.828% | Average viability (ACHN; 5.00E+05 ng/ml NPs (pure drug equimolar)): 50.916% | Average viability (PANC-1; PANC1, 1.25E+04 ng/ml NPs (pure drug equimolar)): 94.813% | Average viability (PANC-1; PANC1, 1.25E+05 ng/ml NPs (pure drug equimolar)): 82.872% | Average viability (PANC-1; PANC1, 1.25E+06 ng/ml NPs (pure drug equimolar)): 27.965% | Average viability (PANC-1; PANC1, 2.50E+04 ng/ml NPs (pure drug equimolar)): 99.155% | Average viability (PANC-1; PANC1, 2.50E+05 ng/ml NPs (pure drug equimolar)): 79.499% | Average viability (PANC-1; PANC1, 2.50E+06 ng/ml NPs (pure drug equimolar)): 5.339% | Average viability (PANC-1; PANC1, 5.00E+03 ng/ml NPs (pure drug equimolar)): 97.954% | Average viability (PANC-1; PANC1, 5.00E+05 ng/ml NPs (pure drug equimolar)): 54.929%

From US20210052616A1, “ANTHRACYCLINE ENCAPSULATED WITH A POLYSACCHARIDE FOR USE IN THE TREATMENT OF TUMOURS” (NANOVELOS S.A, priority 2018, published 2021)
